We go through 24 compounds from US20090209536A1, “AMINOQUINAZOLINE CANNABINOID RECEPTOR MODULATORS FOR TREATMENT OF DISEASE” (KALYPSYS, INC., priority 2007, published 2009).

Test [1] concerns the target T1, human cannabinoid receptor type 1 (Homo sapiens, UniProt P21554).
T1 construct: purchased Perkin Elmer RBHCB1M; host or cells: HEK 293 EBNA cells
The test is described as follows: Human CB1 Radioligand Binding Assay (basis of selectivity, CB2 vs. CB1). Conditions: CB1: HEK 293 EBNA cells expressing human CB1; CB2: CHO CB2 membranes. The method, then:
2. Human CB1 Radioligand Binding Assay
The incubation buffer was composed of 50 mM Tris-HCl pH 7.4, 2.5 mM EDTA, 5 mM MgCl2, 5.0 mg/ml fatty acid free BSA and the wash buffer was composed of 50 mM Tris-HCl pH 7.4, 2.5 mM EDTA, 5 mM MgCl2, 0.5 mg/ml fatty acid free BSA.

In test [2] the target is T2, human cannabinoid receptor type 2 (Homo sapiens, UniProt P34972).
T2 construct: expressed in transfected cells; membrane preparation
Put plainly: Human CB2 Radioligand Binding Assay. Conditions: competition with [3H] CP-55,940; membranes from stably transfected CHO CB2 cells; read-out: CB2 Ligand Binding Asssay EC50. A digest of the protocol: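 Test compounds (10 uM final, or dose-response) competed with [3H]CP-55,940, used at the Kd determined per membrane lot, for binding to stable human CB2-CHO membranes over 90 min at 30° C in pH 7.4 Tris/EGTA/MgCl2/BSA buffer. GF/C filtration then scintillation counting; 100 nM CP-55,940 defined 100% efficacy.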

T1 sequence (P21554 whole entry): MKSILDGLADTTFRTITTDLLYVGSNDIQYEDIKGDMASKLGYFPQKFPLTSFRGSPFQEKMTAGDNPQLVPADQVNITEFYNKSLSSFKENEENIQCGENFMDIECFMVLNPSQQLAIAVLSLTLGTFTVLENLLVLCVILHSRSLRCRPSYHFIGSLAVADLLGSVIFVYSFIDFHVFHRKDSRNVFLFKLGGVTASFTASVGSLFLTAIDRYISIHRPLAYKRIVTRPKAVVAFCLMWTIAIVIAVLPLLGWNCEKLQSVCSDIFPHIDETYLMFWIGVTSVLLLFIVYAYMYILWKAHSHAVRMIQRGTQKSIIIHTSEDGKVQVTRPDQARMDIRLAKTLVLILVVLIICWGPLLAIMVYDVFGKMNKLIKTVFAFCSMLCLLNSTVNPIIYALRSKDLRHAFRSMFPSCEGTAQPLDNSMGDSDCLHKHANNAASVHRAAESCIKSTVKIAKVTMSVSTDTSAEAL
T2 sequence (P34972 whole entry): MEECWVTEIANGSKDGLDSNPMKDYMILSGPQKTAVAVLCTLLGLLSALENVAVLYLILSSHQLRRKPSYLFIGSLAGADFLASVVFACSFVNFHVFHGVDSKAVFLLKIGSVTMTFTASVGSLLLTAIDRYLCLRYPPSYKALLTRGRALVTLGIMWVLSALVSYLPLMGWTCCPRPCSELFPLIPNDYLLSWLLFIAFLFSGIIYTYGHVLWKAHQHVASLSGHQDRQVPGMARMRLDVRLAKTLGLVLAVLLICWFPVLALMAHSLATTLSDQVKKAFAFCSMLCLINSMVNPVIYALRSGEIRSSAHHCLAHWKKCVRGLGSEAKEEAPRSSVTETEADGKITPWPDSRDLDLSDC

Take `Clc1ccc(-c2nc(N3CCc4ccccc4C3)c3ccccc3n2)cc1` [Example 123, 2-(4-Chlorophenyl)-4-(3,4-dihydro-1H-isoquinolin-2-yl)quinazoline]: the “Selectivity, CB2 vs. CB1” value in test [1] was “− (− indicates ≦ 10−fold)”. The EC50 in test [2] is more than 1000 nM.
For `CCOC(=O)N1CCN(c2nc(Nc3ccccc3)nc3cc(C(C)(C)C)ccc23)CC1` [Example 286, Ethyl 4-(7-tert-butyl-2-(phenylamino)quinazolin-4-yl)piperazine-1-carboxylate], the “Selectivity, CB2 vs. CB1” value in test [1] is on record as “+ (+ indicates > 10−fold)”. The EC50 in test [2] is less than 1000 nM.
The like results for `CCCS(=O)(=O)N1CCN(c2nc(-c3ccccc3Cl)nc3ccccc23)CC1` [Example 84, 2-(2-Chlorophenyl)-4-(4-(propylsulfonyl)piperazin-1-yl)quinazoline] were, in that order, “− (− indicates ≦ 10−fold)” and more than 1000 nM.
The like results for `CC(=O)N1CCN(c2nc(-c3ccccc3Cl)nc3cc(C(=O)N4CCCCC4)ccc23)CC1` [Example 324, 1-(4-(2-(2-Chlorophenyl)-7-(piperidine-1-carbonyl)quinazolin-4-yl)piperazin-1-yl)ethanone] were, in that order, “− (− indicates ≦ 10−fold)” and more than 1000 nM.
For `COc1ccc2nc(-c3ccccc3Cl)nc(N3CCCCC3)c2c1` [Example 178, 2-(2-Chlorophenyl)-6-methoxy-4-(piperidin-1-yl)quinazoline] the same measures were “− (− indicates ≦ 10−fold)” and less than 1000 nM.
Regarding `Clc1ccccc1-c1nc(N2CCNCC2)c2c(Cl)cccc2n1` [Example 236, 5-Chloro-2-(2-chlorophenyl)-4-(piperazin-1-yl)quinazoline], the “Selectivity, CB2 vs. CB1” value in test [1] is given as “− (− indicates ≦ 10−fold)”. The half-maximal effective concentration (EC50) in test [2] is more than 1000 nM.
The like results for `O=S(=O)(NCc1nc(N2Cc3ccccc3C2)c2ccccc2n1)c1cccc2ccccc12` [Example 308, N-((4-(isoindolin-2-yl)quinazolin-2-yl)methyl)naphthalene-1-sulfonamide] were, in that order, “− (− indicates ≦ 10−fold)” and less than 1000 nM.
The like results for `Fc1ccc(-c2nc(N3CCOCC3)c3ccccc3n2)cc1F` [Example 16, 4-(2-(3,4-difluorophenyl)quinazolin-4-yl)morpholine] were, in that order, “− (− indicates ≦ 10−fold)” and more than 1000 nM.
Regarding `CC1CCN(c2nc(-c3ccccc3Cl)nc3ccccc23)CC1` [Example 58, 2-(2-Chlorophenyl)-4-(4-methylpiperidin-1-yl)quinazoline], the “Selectivity, CB2 vs. CB1” value in test [1] was “− (− indicates ≦ 10−fold)”. Moreover, the EC50 in test [2] is less than 1000 nM.
The like results for `Fc1ccc(-c2nc(N3CCCC3)c3ccccc3n2)cc1F` [Example 13, 2-(3,4-Difluorophenyl)-4-(pyrrolidin-1-yl)quinazoline] were, in that order, “− (− indicates ≦ 10−fold)” and less than 1000 nM.
Turning to `CCOC(=O)N1CCN(c2nc(-c3ccccc3Cl)nc3ccc(C(C)(C)C)cc23)CC1` [Example 219, Ethyl 4-(6-tert-butyl-2-(2-chlorophenyl)quinazolin-4-yl)piperazine-1-carboxylate], the “Selectivity, CB2 vs. CB1” value in test [1] is reported as “+ (+ indicates > 10−fold)”. In test [2], the concentration for a half-maximal effect (EC50) was less than 1000 nM.
For `O=S(=O)(NCc1nc(Nc2ccccc2)c2ccccc2n1)c1cccc2ccccc12` [Example 302, N-((4-(Phenylamino)quinazolin-2-yl)methyl)naphthalene-1-sulfonamide] the same measures were “− (− indicates ≦ 10−fold)” and more than 1000 nM.
For `Clc1ccc2nc(C3CCCCC3)nc(N3CCCC3)c2c1` [Example 167, 6-Chloro-2-cyclohexyl-4-(pyrrolidin-1-yl)quinazoline] the same measures were “+ (+ indicates > 10−fold)” and less than 1000 nM.
The like results for `CCOC(=O)N1CCN(c2nc(-c3ccccc3Cl)nc3ccccc23)CC1` [Example 62, Ethyl 4-(2-(2-Chlorophenyl)quinazolin-4-yl)piperazine-1-carboxylate] were, in that order, “+ (+ indicates > 10−fold)” and less than 1000 nM.
For `Clc1ccccc1Nc1nc(-c2ccccc2)nc2ccccc12` [Example 49, N-(2-Chlorophenyl)-2-phenylquinazolin-4-amine], the “Selectivity, CB2 vs. CB1” value in test [1] is given as “− (− indicates ≦ 10−fold)”. Besides, the EC50 in test [2] was more than 1000 nM.
For `CCCCN1CCN(c2nc(-c3ccccc3Cl)nc3ccccc23)CC1` [Example 107], the “Selectivity, CB2 vs. CB1” value in test [1] was “− (− indicates ≦ 10−fold)”. Besides, in test [2], the 50% effective concentration (EC50) is more than 1000 nM.
The like results for `Clc1ccccc1-c1nc(N2CCc3ccccc3C2)c2ccccc2n1` [Example 61, 2-(2-Chlorophenyl)-4-(3,4-dihydroisoquinolin-2(1H)-yl)quinazoline] were, in that order, “− (− indicates ≦ 10−fold)” and less than 1000 nM.
The like results for `CCOC(=O)N1CCN(c2nc(-c3ccccc3Cl)nc3ccc(Cl)cc23)CC1` [Example 206, Ethyl 4-(6-chloro-2-(2-chlorophenyl)quinazolin-4-yl)piperazine-1-carboxylate] were, in that order, “− (− indicates ≦ 10−fold)” and more than 1000 nM.
For `CCOC(=O)N1CCN(c2nc(-c3ccc(F)c(F)c3)nc3ccccc23)CC1` [Example 220, Ethyl 4-(2-(3,4-difluorophenyl)quinazolin-4-yl)piperazine-1-carboxylate] the same measures were “− (− indicates ≦ 10−fold)” and more than 1000 nM.
In the case of `FC(F)(F)CN1CCN(c2nc(-c3ccccc3Cl)nc3ccccc23)CC1` [Example 104, 2-(2-chlorophenyl)-4-(4-(2,2,2-trifluoroethyl)piperazin-1-yl)quinazoline], the “Selectivity, CB2 vs. CB1” value in test [1] is listed as “− (− indicates ≦ 10−fold)”. Further, in test [2], the EC50 is less than 1000 nM.
For the compound `Clc1ccc(-c2nc(NCc3ccccc3)c3ccccc3n2)cc1` [Example 121, N-Benzyl-2-(4-chlorophenyl)quinazolin-4-amine], the “Selectivity, CB2 vs. CB1” value in test [1] is listed as “− (− indicates ≦ 10−fold)”. The half-maximal effective concentration (EC50) in test [2] was more than 1000 nM.
The like results for `Clc1ccc(-c2nc(N3CCCC3)c3ccccc3n2)c(Cl)c1` [Example 28, 2-(2,4-Dichlorophenyl)-4-pyrrolidin-1-ylquinazoline] were, in that order, “+ (+ indicates > 10−fold)” and more than 1000 nM.
For `Clc1ccccc1-c1nc(N2CCCC2)c2c(Cl)cccc2n1` [Example 267, 5-Chloro-2-(2-chlorophenyl)-4-(pyrrolidin-1-yl)quinazoline], in test [1], the “Selectivity, CB2 vs. CB1” value is “+ (+ indicates > 10−fold)”. Besides, the half-maximal effective concentration (EC50) in test [2] was less than 1000 nM.
The like results for `Cc1cccc2nc(-c3ccccc3Cl)nc(N3CCCC3)c12` [Example 256, 2-(2-Chlorophenyl)-5-methyl-4-(pyrrolidin-1-yl)quinazoline] were, in that order, “+ (+ indicates > 10−fold)” and less than 1000 nM.

By EC50 is commonly meant the concentration needed to bring the measured effect to its halfway point.
